Test system: modified aptamer M3.2 (DNA, aptamer) ACTCATCTGTGAAGAGAAGCAGCACAGAGGTCAGATGTCCGTCAGCCCCGATCGCCATCCAGGGACTCCCCCCTATGCCTATGCGTGCTACCGTGAA
Test: gold nanoparticle colorimetric assay, UV-Vis
Conditions: 250 mM NaCl; 1 µL of 50 mM compound in DMF added; room temperature; thiol oligos on gold nanoparticles

SMILES | binding
CN1C[C@H](CNC(=O)OCc2ccccc2)C[C@@H]2c3cccc4c3c(cn4C)C[C@H]21 | yes
CC(C)[C@H]1C(=O)N2CCC[C@H]2[C@]2(O)O[C@](NC(=O)[C@@H]3C=C4c5cccc6[nH]cc(c56)C[C@H]4N(C)C3)(C(C)C)C(=O)N12 | no
CN1C[C@H](CN)C[C@@H]2c3cccc4c3c(cn4C)C[C@H]21 | yes
O=C(N[C@H](CO)[C@H](O)c1ccc([N+](=O)[O-])cc1)C(Cl)Cl | no

Second part, the compound after the results:

binding | SMILES
no | NCCc1c[nH]c2ccccc12
no | N[C@@H](Cc1c[nH]c2ccccc12)C(=O)O
no | CN(C)Cc1c[nH]c2ccccc12
